In patent US20250387375A1, “SOFALCONE DERIVATIVES AND MEDICAL USE THEREOF” (KAOHSIUNG MEDICAL UNIVERSITY, priority 2024, published 2025):

Legend:
[1] = tested on: human platelet suspension (platelet aggregation caused by collagen); experiment: Platelet aggregation reaction test, collagen-induced; format: cell-based; conditions: read-out: Collagen IC 50
Protocol: (§1) Blood samples were collected from healthy donors, and acid-citrate-dextrose (ACD) solution was used as an anticoagulant. The blood samples were centrifuged to obtain platelets, and residual plasma was removed by washing to prepare platelet suspension.
(§2) In the experimental method, a platelet aggregometer (Chrono-Log Co., Havertown, PA, USA) was used for tests. The compound to be tested was added to the platelet suspension and reacted for 3 minutes at 37° C. with stirring (1200 rpm). Then, platelet stimulator U46619 or collagen was added to initiate platelet aggregation, and the test time was 5 minutes. The principle of the platelet aggregation test was: when platelets were stimulated to induce aggregation reaction, the light transmission of the platelet suspension would increase; by calculating changes in light transmission of the platelet suspension before and after being stimulated, the percentage of platelet aggregation could be obtained.

[2] = tested on: human platelet suspension (platelet aggregation caused by TxA2 agonist U46619); experiment: Platelet aggregation reaction test, U46619-induced; format: cell-based
Protocol: as §1, §2

Row | SMILES | IC50 [1] | IC50 [2]
1 | CCOC(=O)COc1cc(O)ccc1C(=O)C=Cc1cccc(O)c1 [Compound 40] | 10.3 µM | 25.9 µM
2 | COC(=O)CCCOc1ccccc1C(=O)C=Cc1ccccc1 [Compound 112] | 2.69 µM | 13.4 µM
3 | O=C(O)COc1ccccc1C(=O)C=Cc1ccccc1 [Compound 35] | 7.91 µM | 6.58 µM
4 | COC(=O)COc1cc(OCc2ccc(F)cc2)ccc1C(=O)C=Cc1ccc(OCc2ccc(F)cc2)cc1 [Compound 86] | > 100 µM | > 100 µM
5 | CCOC(=O)CCCOc1ccccc1C(=O)C=Cc1ccc(OCC=C(C)CCC=C(C)C)cc1 [Compound 8] | 4.24 µM | 2.78 µM
6 | Nc1ccsc1C=CC(=O)c1ccccc1OCCCCCC(=O)O [Compound 78] | 7.7 µM | 5.87 µM
7 | O=C(O)CCCOc1cc(O)ccc1C(=O)C=Cc1ccc(O)cc1 [Compound 70] | 6.55 µM | 5.43 µM
8 | CC(C)CCOc1ccc(CCC(=O)c2ccc(OCCC(C)C)cc2OCC(=O)O)cc1 [Compound 100] | 66.8 µM | 1.73 µM
9 | CC(C)=CCOc1cccc(/C=C/C(=O)c2ccc(OCC=C(C)C)cc2OCC(=O)O)c1 [Compound 20] | 28.3 µM | 20.6 µM
10 | O=C(O)COc1cc(F)ccc1C(=O)C=Cc1ccccc1 [Compound 31] | 7.1 µM | 4.4 µM
11 | O=C(O)CCCCCOc1ccccc1C(=O)CCc1ccccc1 [Compound 49] | 4.85 µM | 0.5 µM
12 | O=C(O)CCCCCOc1cc(F)ccc1C(=O)/C=C/c1ccc(F)cc1 [Compound 16] | 0.62 µM | 0.37 µM
13 | O=C(O)COc1ccccc1C(=O)C=Cc1ccco1 [Compound 56] | 38.3 µM | 72.2 µM
14 | CCCCCCCCOc1ccc(C=CC(=O)c2ccc(OCCCCCCCC)cc2OCC(=O)O)cc1 [Compound 96] | > 100 µM | > 100 µM
15 | O=C(O)CCCCCOc1cc(F)ccc1C(=O)/C=C/c1ccc(F)cc1 [Compound 12] | 0.43 µM | 0.5 µM
16 | CC(C)=CCCC(C)=CCOc1ccc(C(=O)C=Cc2ccc(OCC=C(C)C)cc2)c(OCCCC(=O)O)c1 [Compound 5] | 6.28 µM | 4.45 µM
17 | CC(C)=CCOc1ccc(C=CC(=O)c2ccccc2OCCCCCC(=O)O)cc1 [Compound 103] | 0.38 µM | 0.46 µM
18 | CCOC(=O)CCCCOc1ccccc1C(=O)C=Cc1ccccc1 [Compound 110] | 4.48 µM | 2.9 µM
19 | COC(=O)COc1cc(O)ccc1C(=O)C=Cc1ccc(O)cc1 [Compound 69] | 3.42 µM | 27.8 µM
20 | COC(=O)COc1cc(OCc2ccccc2)ccc1C(=O)C=Cc1ccc(OCc2ccccc2)cc1 [Compound 85] | > 100 µM | > 100 µM
21 | CCOC(=O)CCCCCOc1ccccc1C(=O)C=Cc1cccs1 [Compound 61] | 0.56 µM | 0.54 µM
22 | CCOC(=O)CCCCCOc1ccccc1C(=O)C=Cc1ccccc1 [Compound 111] | 0.22 µM | 0.16 µM
23 | O=C(O)COc1cc(OCc2ccc(F)cc2)ccc1C(=O)C=Cc1ccc(OCc2ccc(F)cc2)cc1 [Compound 89] | 33.9 µM | 3.59 µM
24 | COC(=O)COc1cc(O)ccc1C(=O)CCc1ccc(O)cc1 [Compound 72] | 11.6 µM | 47.6 µM
25 | CC1=C(C)C(=O)C(C(CCCCCC(=O)O)c2ccccc2)=C(C)C1=O (stereo not shown) [Seratrodast, reference compound] | 5.27 µM | 0.71 µM
26 | O=C(O)COc1cc(OCc2ccccc2)ccc1C(=O)C=Cc1ccc(OCc2ccccc2)cc1 [Compound 88] | 45.1 µM | 9.09 µM
27 | CCOC(=O)CCCCCOc1ccccc1C(=O)C=Cc1ccccn1 [Compound 63] | 6.05 µM | 4.57 µM

Row | SMILES | IC50 [1] | IC50 [2]
28 | O=C(O)COc1ccccc1C(=O)C=Cc1ccc(Br)s1 [Compound 58] | 40.9 µM | 72.6 µM
29 | CCOC(=O)CCCCCOc1ccccc1C(=O)C=Cc1ccccc1F [Compound 38] | 0.07 µM | 0.03 µM
30 | CC(C)=CCOc1ccc(C(=O)/C=C/c2ccc(OCC=C(C)C)c(OCC=C(C)C)c2)c(OCC(=O)O)c1 [Compound 21] | 29.7 µM | 14.4 µM
31 | CC(=O)Nc1ccc(/C=C/C(=O)c2ccc(OCC=C(C)C)cc2OCC(=O)O)cc1 [Compound 26] | 40.8 µM | 15.7 µM
32 | O=C(O)CCCCCOc1ccccc1C(=O)C=Cc1ccccc1 [Compound 77] | 43.6 µM | 5.54 µM
33 | O=C(O)CCCCCOc1ccccc1C(=O)C=Cc1cccnc1 [Compound 54] | 22.1 µM | 5.45 µM
34 | O=C(O)CCCCCOc1ccccc1C(=O)C=Cc1ccccc1 [Compound 36] | 0.13 µM | 0.19 µM
35 | O=C(O)COc1cc(F)ccc1C(=O)C=Cc1ccc(F)cc1 [Compound 33] | 12.2 µM | 2.15 µM
36 | O=C(O)COc1cc(O)ccc1C(=O)C=Cc1ccc(O)cc1 [Compound 71] | > 100 µM | 65.4 µM
37 | CCOC(=O)CCCOc1cc(OCC=C(C)C)ccc1C(=O)C=Cc1cccs1 [Compound 64] | 3.85 µM | 5.87 µM
38 | CC(C)=CCOc1ccc(CCC(=O)c2ccc(OCC=C(C)C)cc2OCC(=O)O)cc1 [Compound 76] | 31 µM | 12.6 µM
39 | CC(C)=CCOc1ccc(C(=O)/C=C/c2ccc(F)cc2)c(OCC(=O)O)c1 [Compound 23] | 33.5 µM | 22.2 µM
40 | COC(=O)CCCCCOc1ccccc1C(=O)C=Cc1ccccc1 [Compound 113] | 0.35 µM | 0.57 µM
41 | O=C(O)CCCCCOc1ccccc1C(=O)CCc1ccccc1 [Compound 116] | 4.46 µM | 0.2 µM
42 | CC(C)=CCCC(C)=CCOc1ccc(C=CC(=O)c2ccc(OCC=C(C)CCC=C(C)C)cc2OCCCC(=O)O)cc1 [Compound 4] | 0.06 µM | 0.05 µM
43 | O=C(O)COc1ccccc1C(=O)/C=C/c1ccc(F)cc1 [Compound 28] | 4.22 µM | 1.8 µM
44 | CC(C)=CCOc1ccc(CCC(=O)c2ccc(OCC=C(C)C)cc2OCCCC(=O)O)cc1 [Compound 75] | 1.3 µM | 0.35 µM
45 | O=C(O)CCCCOc1ccccc1C(=O)C=Cc1ccccc1 [Compound 101] | 3.25 µM | 3.53 µM
46 | CCOC(=O)COc1cc(O)ccc1C(=O)C=Cc1ccc([N+](=O)[O-])cc1 [Compound 45] | > 20 µM | > 20 µM
47 | O=C(O)CCCCCOc1ccccc1C(=O)C=Cc1ccco1 [Compound 52] | 0.56 µM | 0.5 µM
48 | CC(C)=CCOc1ccc(/C=C/C(=O)c2ccccc2OCC(=O)O)cc1 [Compound 27] | 18.8 µM | 5.07 µM
49 | O=C(O)COc1ccccc1C(=O)C=Cc1ccccn1 [Compound 59] | 33.8 µM | 72.1 µM
50 | CC(C)=CCCC(C)=CCOc1ccc(C=CC(=O)c2ccc(OCC=C(C)CCC=C(C)C)cc2OCCCC(=O)O)cc1 [Compound 6] | 44.4 µM | 3.66 µM
51 | CCOC(=O)COc1ccc(C=CC(=O)c2ccc(OCC(=O)OCC)cc2OCC(=O)OC)cc1 [Compound 83] | 8.31 µM | 8.62 µM
52 | CC(C)=CCOc1ccc(/C=C/C(=O)c2ccc(F)cc2OCCCC(=O)O)cc1 [Compound 9] | 5.14 µM | 5.44 µM
53 | CC(C)=CCOc1ccc(C=CC(=O)c2ccccc2OCCCC(=O)O)cc1 [Compound 99] | 6.42 µM | 3.33 µM
